Reference: US11034650B2, “Compounds useful for treating a Mannheimia haemolytica or Histophilus somni infection” (Intervet Inc., priority 2016, dated 2021)
≈ marks a conversion by molar mass, not a printed value.

Assays:
Assay type in all cases: cell-based
[1] = tested on: Pasteurella multocida PM 10775 (080130003051, BRD field isolate); experiment: MIC, broth-microdilution (CLSI VET01-A4), strain PM 10775; settings: Pasteurella multocida strain PM 10775, broth-microdilution; unit assumed
Procedure, shortened: (§1)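 MIC recorded as the lowest drug level giving no growth visible to the naked eye, from two-fold serial dilutions. Interpretation followed VET01-S3.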

[2] = tested on: Mannheimia haemolytica MH 13065 (XB0446-6003.9, BRD field isolate); experiment: MIC, broth-microdilution (CLSI VET01-A4), strain MH 13065; settings: Mannheimia haemolytica strain MH 13065, broth-microdilution; unit assumed
Procedure, shortened: as §1

[3] = tested on: Mannheimia haemolytica MH 12587 (1071, BRD field isolate, macrolide-resistance: erm+, E+); experiment: MIC, broth-microdilution (CLSI VET01-A4), strain MH 12587; settings: Mannheimia haemolytica strain MH 12587, broth-microdilution; unit assumed
Procedure, shortened: as §1

[4] = tested on: Mannheimia haemolytica MH 13093 (XB0472-6014.1, BRD field isolate); experiment: MIC, broth-microdilution (CLSI VET01-A4), strain MH 13093; settings: Mannheimia haemolytica strain MH 13093, broth-microdilution; unit assumed
Procedure, shortened: as §1

[5] = tested on: Pasteurella multocida PM 6391 (ATCC 43137, reference strain); experiment: MIC, broth-microdilution (CLSI VET01-A4), strain PM 6391; settings: Pasteurella multocida strain PM 6391, broth-microdilution; unit assumed
Procedure, shortened: as §1

[6] = tested on: Mannheimia haemolytica MH 6357 (M7/2, reference strain, cattle infection strain); experiment: MIC, broth-microdilution (CLSI VET01-A4), strain MH 6357; settings: Mannheimia haemolytica strain MH 6357, broth-microdilution; unit assumed
Procedure, shortened: as §1

[7] = tested on: Pasteurella multocida PM 6267 (P 2225 (L386), reference strain, mouse infection strain); experiment: MIC, broth-microdilution (CLSI VET01-A4), strain PM 6267; settings: Pasteurella multocida strain PM 6267, broth-microdilution; unit assumed
Procedure, shortened: as §1

[8] = tested on: Mannheimia haemolytica MH 10720 (154, BRD field isolate); experiment: MIC, broth-microdilution (CLSI VET01-A4), strain MH 10720; settings: Mannheimia haemolytica strain MH 10720, broth-microdilution; unit assumed
Procedure, shortened: as §1

[9] = tested on: Pasteurella multocida PM 12080 (IV102277-0093, BRD field isolate); experiment: MIC, broth-microdilution (CLSI VET01-A4), strain PM 12080; settings: Pasteurella multocida strain PM 12080, broth-microdilution; unit assumed
Procedure, shortened: as §1

[10] = tested on: Mannheimia haemolytica MH 6374 (ATCC 33396, reference strain); experiment: MIC, broth-microdilution (CLSI VET01-A4), strain MH 6374; settings: Mannheimia haemolytica strain MH 6374, broth-microdilution; unit assumed
Procedure, shortened: as §1

Structure (SMILES)	MIC PM 10775 [1] [µg/mL]	MIC MH 13065 [2] [µg/mL]	MIC MH 12587 [3] [µg/mL]	MIC MH 13093 [4] [µg/mL]	MIC PM 6391 [5] [µg/mL]	MIC MH 6357 [6] [µg/mL]	MIC PM 6267 [7] [µg/mL]	MIC MH 10720 [8] [µg/mL]	MIC PM 12080 [9] [µg/mL]	MIC MH 6374 [10] [µg/mL]
CC(C)(O)[C@H](NC(=O)c1ccc(C#Cc2ccc(CNC3CC3)nc2)cc1)C(=O)NO [Compound 324]	≤ 0.1	0.8 (≈ 1.89 µM)	1.6 (≈ 3.79 µM)	1.6 (≈ 3.79 µM)	0.4 (≈ 0.947 µM)	0.4 (≈ 0.947 µM)	0.4 (≈ 0.947 µM)	≤ 0.1	0.2 (≈ 0.473 µM)	0.8 (≈ 1.89 µM)
COCCNCc1ccc(C#Cc2ccc(C(=O)N[C@H](C(=O)NO)C(C)(C)O)cc2)cn1 [Compound 325]	≤ 0.1	1.6 (≈ 3.63 µM)	3.1 (≈ 7.04 µM)	3.1 (≈ 7.04 µM)	0.8 (≈ 1.82 µM)	0.8 (≈ 1.82 µM)	1.6 (≈ 3.63 µM)	0.4 (≈ 0.908 µM)	0.8 (≈ 1.82 µM)	1.6 (≈ 3.63 µM)
CC(C)(O)[C@H](NC(=O)c1ccc(C#Cc2ccc(CN3CCOCC3)nc2)cc1)C(=O)NO [Compound 326]	≤ 0.1	3.1 (≈ 6.85 µM)	12.5 (≈ 27.6 µM)	6.3 (≈ 13.9 µM)	0.4 (≈ 0.884 µM)	3.1 (≈ 6.85 µM)	3.1 (≈ 6.85 µM)	0.8 (≈ 1.77 µM)	0.4 (≈ 0.884 µM)	6.3 (≈ 13.9 µM)
CC(C)(O)[C@H](NC(=O)c1ccc(C#Cc2ccc(CNCc3ccccc3)nc2)cc1)C(=O)NO [Compound 327]	≤ 0.1	0.4 (≈ 0.846 µM)	1.6 (≈ 3.39 µM)	0.8 (≈ 1.69 µM)	≤ 0.1	0.8 (≈ 1.69 µM)	0.4 (≈ 0.846 µM)	≤ 0.1	≤ 0.1	0.8 (≈ 1.69 µM)
COc1ccc(CNCc2ccc(C#Cc3ccc(C(=O)N[C@H](C(=O)NO)C(C)(C)O)cc3)cn2)cc1 [Compound 328]	≤ 0.1	0.8 (≈ 1.59 µM)	1.6 (≈ 3.18 µM)	0.8 (≈ 1.59 µM)	≤ 0.1	0.8 (≈ 1.59 µM)	0.8 (≈ 1.59 µM)	≤ 0.1	≤ 0.1	0.8 (≈ 1.59 µM)
CC(C)(O)[C@H](NC(=O)c1ccc(C#Cc2ccc(CNCc3ccncc3)nc2)cc1)C(=O)NO [Compound 329]	≤ 0.1	0.8 (≈ 1.69 µM)	3.1 (≈ 6.55 µM)	1.6 (≈ 3.38 µM)	0.4 (≈ 0.845 µM)	0.8 (≈ 1.69 µM)	0.8 (≈ 1.69 µM)	≤ 0.1	0.4 (≈ 0.845 µM)	1.6 (≈ 3.38 µM)
CC(C)(O)[C@H](NC(=O)c1ccc(C#Cc2ccc(CNCc3cccnc3)nc2)cc1)C(=O)NO [Compound 330]	≤ 0.1	1.6 (≈ 3.38 µM)	3.1 (≈ 6.55 µM)	1.6 (≈ 3.38 µM)	0.8 (≈ 1.69 µM)	0.8 (≈ 1.69 µM)	1.6 (≈ 3.38 µM)	0.2 (≈ 0.422 µM)	0.4 (≈ 0.845 µM)	0.8 (≈ 1.69 µM)
CC(C)(O)[C@H](NC(=O)c1ccc(C#Cc2ccc(CNCc3ccccn3)nc2)cc1)C(=O)NO [Compound 331]	0.4 (≈ 0.845 µM)	3.1 (≈ 6.55 µM)	6.3 (≈ 13.3 µM)	6.3 (≈ 13.3 µM)	1.6 (≈ 3.38 µM)	1.6 (≈ 3.38 µM)	3.1 (≈ 6.55 µM)	0.4 (≈ 0.845 µM)	1.6 (≈ 3.38 µM)	3.1 (≈ 6.55 µM)
CC(C)(O)[C@H](NC(=O)c1ccc(C#Cc2ccc(CNCc3ccco3)nc2)cc1)C(=O)NO [Compound 332]	≤ 0.1	0.8 (≈ 1.73 µM)	1.6 (≈ 3.46 µM)	0.8 (≈ 1.73 µM)	0.4 (≈ 0.865 µM)	0.4 (≈ 0.865 µM)	0.4 (≈ 0.865 µM)	≤ 0.1	0.2 (≈ 0.432 µM)	0.4 (≈ 0.865 µM)
CC(C)(O)[C@H](NC(=O)c1ccc(C#Cc2ccc(CNCC(F)(F)F)nc2)cc1)C(=O)NO [Compound 333]	≤ 0.1	0.8 (≈ 1.72 µM)	1.6 (≈ 3.44 µM)	1.6 (≈ 3.44 µM)	0.4 (≈ 0.861 µM)	0.4 (≈ 0.861 µM)	0.4 (≈ 0.861 µM)	≤ 0.1	0.2 (≈ 0.431 µM)	0.8 (≈ 1.72 µM)
Cc1cnc(CNCc2ccc(C#Cc3ccc(C(=O)N[C@H](C(=O)NO)C(C)(C)O)cc3)cn2)o1 [Compound 334]	≤ 0.1	0.8 (≈ 1.68 µM)	1.6 (≈ 3.35 µM)	1.6 (≈ 3.35 µM)	0.4 (≈ 0.838 µM)	0.4 (≈ 0.838 µM)	0.4 (≈ 0.838 µM)	≤ 0.1	0.2 (≈ 0.419 µM)	0.4 (≈ 0.838 µM)
